Experimental findings from patent US9290453B2 (Merck Sharp & Dohme Corp., priority 2010, dated 2016) are described below.

The assay has as its target T1, hCRTH2 (Homo sapiens, UniProt Q9Y5Y4).
T1 construct: expressed in transfected cells; host or cells: HEK (human embryonic kidney) cells expressing hCRTH2
T1 sequence (Q9Y5Y4 1-395): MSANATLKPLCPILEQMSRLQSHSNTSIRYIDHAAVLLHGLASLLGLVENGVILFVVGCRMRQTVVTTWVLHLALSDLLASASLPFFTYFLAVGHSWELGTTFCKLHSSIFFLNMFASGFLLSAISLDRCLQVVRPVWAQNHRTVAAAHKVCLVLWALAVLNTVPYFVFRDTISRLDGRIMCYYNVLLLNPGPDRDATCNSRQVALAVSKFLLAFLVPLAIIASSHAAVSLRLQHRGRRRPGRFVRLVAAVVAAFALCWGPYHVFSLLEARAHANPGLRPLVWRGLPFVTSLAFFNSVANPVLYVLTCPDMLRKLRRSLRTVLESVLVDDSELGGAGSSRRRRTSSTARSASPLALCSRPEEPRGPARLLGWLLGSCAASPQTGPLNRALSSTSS
Nature of the assay: Radioligand Binding Assay B (scintillation proximity assay, [3H]-PGD2, HEK-hCRTH2 membranes). As to conditions: Radioligand Binding Assay B (SPA). The method, then: Radioligand binding also was performed using scintillation proximity assay (SPA) technology in a similar way as described above in Radioligand Binding Assay A with minor modification. Assays were done at room temperature in 10 mM HEPES pH 7.4, 1 mM EDTA containing 2 mM MnCl2 and 16 nM [^3H]-PGD2 (PerkinElmer, Waltham, Mass.) (164 Ci mmol^−1), in a final volume of 0.05 mL. Competing ligands were diluted in dimethylsulfoxide (Me2SO) and added using very low volumes (50 nL). The reaction was initiated by the addition of a mixture of 3.52 μg of membrane protein prepared from a human embryonic kidney (HEK)-hCRTH2 cell line adhered to 140 ug of wheatgerm agglutinin SPA beads (PerkinElmer). Total and non-specific binding were determined in the absence and the presence of 10 μM of a CRTH2 antagonist, respectively. The reaction was routinely conducted for 60 min at room temperature followed by centrifugation for 5 minutes at 1000 RPM. The radioactivity was measured with a TopCountNXT (PerkinElmer). Results determined using the SPA-based assay were similar to those from the filtration binding assay.
A general note: SPA uses beads or plates that emit light when radiolabelled molecules are held near them.

One may read the Ki as the equilibrium dissociation constant of an inhibitor or competing ligand from its target. Compound `O=C(O)CCCCc1cc2cc(C(=O)N3CCN(c4ccccc4Cl)CC3)ccc2nc1-c1ccccc1` [Compound 1BA, 5-(6-(4-(2-chlorophenyl)piperazine-1-carbonyl)-2-phenylquinolin-3-yl)pentanoic acid] registered an inhibition constant Ki (Table B, rated A-D) of 0.0021 to 0.02 µM.
Still for that read-out and setting: as for `O=C(O)CCCCc1cc2cc(C(=O)N3CCN(c4ccccc4Cl)CC3)ccc2nc1-c1ccc(F)cc1` [Compound 5AS, 5-(6-(4-(2-chlorophenyl)piperazine-1-carbonyl)-2-(4-fluorophenyl)quinolin-3-yl)pentanoic acid], the figure is 0.0021 to 0.02 µM; as for `CN(Cc1ccc(F)cc1)C(=O)c1ccc2nc(-c3ccccc3)c(CCCCC(=O)O)cc2c1` [Compound 1AK, 5-(6-((4-fluorobenzyl)(methyl)carbamoyl)-2-phenylquinolin-3-yl)pentanoic acid], 0.0201 to 0.2 µM.
In turn, `O=C(O)CCCCc1cc2cc(C(=O)N3CCN(c4ccccc4)CC3)ccc2nc1-c1ccc(Cl)cc1` [Compound 5BD, 5-(2-(4-chlorophenyl)-6-(4-phenylpiperazine-1-carbonyl)quinolin-3-yl)pentanoic acid] showed a Ki (Table B, rated A-D) of 0.0021 to 0.02 µM.
`O=C(O)CCCCc1cc2cc(C(=O)N3CCN(c4ccccc4)CC3)ccc2nc1-c1ccc(F)cc1` [Compound 5AF, 5-(2-(4-fluorophenyl)-6-(4-phenylpiperazine-1-carbonyl)quinolin-3-yl)pentanoic acid]: the Ki reads like this: (values in text) 0.0116 µM; (Table B, rated A-D) 0.0021 to 0.02 µM.
`N#CC1(c2ccccc2)CCN(C(=O)c2ccc3nc(-c4ccccc4)c(CCCCC(=O)O)cc3c2)C1` (centres unmarked) [Compound 1AR, 5-(6-(3-cyano-3-phenylpyrrolidine-1-carbonyl)-2-phenylquinolin-3-yl)pentanoic acid] yielded a Ki (Table B, rated A-D) of 0.0021 to 0.02 µM.
Under “Table B, rated A-D”, `O=C(O)CCCCc1cc2cc(C(=O)N[C@H]3COc4ccccc43)ccc2nc1-c1ccccc1` [Compound 1Ao, (R)-5-(6-((2,3-dihydrobenzofuran-3-yl)carbamoyl)-2-phenylquinolin-3-yl)pentanoic acid] yielded a Ki of 0.0201 to 0.2 µM.
The same measure, in the same setting: as for `O=C(O)CCCCc1cc2cc(C(=O)NC3CC(=O)Nc4ccccc43)ccc2nc1-c1ccc(F)cc1` (centres unmarked) [Compound 5AL, 5-(2-(4-fluorophenyl)-6-((2-oxo-1,2,3,4-tetrahydroquinolin-4-yl)carbamoyl)quinolin-3-yl)pentanoic acid], the figure is 0.0021 to 0.02 µM.
On to `O=C(O)CCCCc1cc2cc(C(=O)NCc3ccccc3)ccc2nc1-c1ccc(Cl)cc1` [Compound 5BL, 5-(6-(benzylcarbamoyl)-2-(4-chlorophenyl)quinolin-3-yl)pentanoic acid], for which the Ki (Table B, rated A-D) was in the range of 0.0021 to 0.02 µM.
`COc1ccc(N2CCN(C(=O)c3ccc4nc(-c5ccc(F)cc5)c(CCCCC(=O)O)cc4c3)CC2)cc1` [Compound 5AV, 5-(2-(4-fluorophenyl)-6-(4-(4-methoxyphenyl)piperazine-1-carbonyl)quinolin-3-yl)pentanoic acid] yielded a Ki (Table B, rated A-D) of 0.0021 to 0.02 µM.
Under “Table B, rated A-D”, `Cc1ccccc1N1CCN(C(=O)c2ccc3nc(-c4ccc(Cl)cc4)c(CCCCC(=O)O)cc3c2)CC1` [Compound 5BQ, 5-(2-(4-chlorophenyl)-6-(4-(o-tolyl)piperazine-1-carbonyl)quinolin-3-yl)pentanoic acid] showed a Ki of 0.0021 to 0.02 µM.
The same measure, in the same setting: as for `O=C(O)CCCCc1cc2cc(C(=O)N3CCN(c4ccc(F)cc4)CC3)ccc2nc1-c1ccc(F)cc1` [Compound 5AX, 5-(2-(4-fluorophenyl)-6-(4-(4-fluorophenyl)piperazine-1-carbonyl)quinolin-3-yl)pentanoic acid], the figure is 0.0021 to 0.02 µM; as for `CN(Cc1ccc(F)cc1)C(=O)c1ccc2nc(-c3ccc(Cl)cc3)c(CCCCC(=O)O)cc2c1` [Compound 5BG, 5-(2-(4-chlorophenyl)-6-((4-fluorobenzyl)(methyl)carbamoyl)quinolin-3-yl)pentanoic acid], 0.0021 to 0.02 µM.
Consider `Cc1cccc(N2CCN(C(=O)c3ccc4nc(-c5ccc(Cl)cc5)c(CCCCC(=O)O)cc4c3)CC2)c1` [Compound 5BR, 5-(2-(4-chlorophenyl)-6-(4-(m-tolyl)piperazine-1-carbonyl)quinolin-3-yl)pentanoic acid], for which the Ki is 0.0074 µM (values in text) and 0.0021 to 0.02 µM (Table B, rated A-D).
`Cc1cccc(N2CCN(C(=O)c3ccc4nc(-c5ccccc5)c(CCCCC(=O)O)cc4c3)CC2)c1` [Compound 1BC, 5-(2-phenyl-6-(4-(m-tolyl)piperazine-1-carbonyl)quinolin-3-yl)pentanoic acid] displayed a Ki (Table B, rated A-D) of 0.0021 to 0.02 µM.
On to `O=C(O)CCCCc1cc2cc(C(=O)N3CC(c4cccc(F)c4)C3)ccc2nc1-c1ccccc1` [Compound 1AJ, 5-(6-(3-(3-fluorophenyl)azetidine-1-carbonyl)-2-phenylquinolin-3-yl)pentanoic acid], for which the Ki (Table B, rated A-D) fell in the range of 0.0021 to 0.02 µM.
For the compound `O=C(O)CCCCc1cc2cc(C(=O)N3CCC4(CC3)OCc3ccccc34)ccc2nc1-c1ccccc1` [Compound 1AV, 5-(2-phenyl-6-(3H-spiro[isobenzofuran-1,4′-piperidin]-1′-ylcarbonyl)quinolin-3-yl)pentanoic acid], the Ki (Table B, rated A-D) was 0.0021 to 0.02 µM.
The compound `O=C(O)CCCCc1cc2cc(C(=O)N[C@@H]3CCCc4cc(F)ccc43)ccc2nc1-c1ccc(F)cc1` [Compound 5AE, (R)-5-(6-((6-fluoro-1,2,3,4-tetrahydronaphthalen-1-yl)carbamoyl)-2-(4-fluorophenyl)quinolin-3-yl)pentanoic acid] registered a Ki (Table B, rated A-D) of 0.0021 to 0.02 µM.
Where the note is “Table B, rated A-D”, `O=C(O)CCCCc1cc2cc(C(=O)NC3CC(=O)Nc4ccccc43)ccc2nc1-c1ccc(Cl)cc1` (centres unmarked) [Compound 5BJ, 5-(2-(4-chlorophenyl)-6-((2-oxo-1,2,3,4-tetrahydroquinolin-4-yl)carbamoyl)quinolin-3-yl)pentanoic acid] displayed a Ki of 0.0021 to 0.02 µM.
Same read-out and setting: as for `CC1(C)CC(NC(=O)c2ccc3nc(-c4ccccc4)c(CCCCC(=O)O)cc3c2)c2ccccc2O1` (centres unmarked) [Compound 1AP, 5-(6-((2,2-dimethylchroman-4-yl)carbamoyl)-2-phenylquinolin-3-yl)pentanoic acid], the figure is 0.0201 to 0.2 µM; as for `O=C(O)CCCCc1cc2cc(C(=O)NCc3ccccc3)ccc2nc1-c1ccc(F)cc1` [Compound 5AN, 5-(6-(benzylcarbamoyl)-2-(4-fluorophenyl)quinolin-3-yl)pentanoic acid], 0.0201 to 0.2 µM; as for `N#Cc1ccccc1N1CCN(C(=O)c2ccc3nc(-c4ccccc4)c(CCCCC(=O)O)cc3c2)CC1` [Compound 1AZ, 5-(6-(4-(2-cyanophenyl)piperazine-1-carbonyl)-2-phenylquinolin-3-yl)pentanoic acid], 0.0021 to 0.02 µM.
As to `O=C(O)CCCCc1cc2cc(C(=O)N3CCN(c4ccc(F)cc4)CC3)ccc2nc1-c1ccc(Cl)cc1` [Compound 5BU, 5-(2-(4-chlorophenyl)-6-(4-(4-fluorophenyl)piperazine-1-carbonyl)quinolin-3-yl)pentanoic acid], under “Table B, rated A-D”, the Ki fell in the range of 0.0021 to 0.02 µM.
Still for that read-out and setting: as for `O=C(O)CCCCc1cc2cc(C(=O)N3CCC(n4c(=O)[nH]c5ccccc54)CC3)ccc2nc1-c1ccccc1` [Compound 1AU, 5-(6-(4-(2-oxo-2,3-dihydro-1H-benzo[d]imidazol-1-yl)piperidine-1-carbonyl)-2-phenylquinolin-3-yl)pentanoic acid], the figure is 0.0201 to 0.2 µM; as for `CC(C)(NC(=O)c1ccc2nc(-c3ccccc3)c(CCCCC(=O)O)cc2c1)c1ccc(F)cc1` [Compound 1AT, 5-(6-((2-(4-fluorophenyl)propan-2-yl)carbamoyl)-2-phenylquinolin-3-yl)pentanoic acid], 0.0201 to 0.2 µM; as for `COc1ccccc1C1CCN(C(=O)c2ccc3nc(-c4ccc(F)cc4)c(CCCCC(=O)O)cc3c2)CC1` [Compound 5AP, 5-(2-(4-fluorophenyl)-6-(4-(2-methoxyphenyl)piperidine-1-carbonyl)quinolin-3-yl)pentanoic acid], 0.0021 to 0.02 µM.
`CC1(C)CCC(NC(=O)c2ccc3nc(-c4ccccc4)c(CCCCC(=O)O)cc3c2)c2ccccc21` (centres unmarked) [Compound 1AQ, 5-(6-((4,4-dimethyl-1,2,3,4-tetrahydronaphthalen-1-yl)carbamoyl)-2-phenylquinolin-3-yl)pentanoic acid] displayed a Ki (Table B, rated A-D) of 0.0021 to 0.02 µM.
Still for that read-out and setting: in the case of `CN(Cc1ccc(F)cc1)C(=O)c1ccc2nc(-c3ccc(F)cc3)c(CCCCC(=O)O)cc2c1` [Compound 5Ai, 5-(6-((4-fluorobenzyl)(methyl)carbamoyl)-2-(4-fluorophenyl)quinolin-3-yl)pentanoic acid] it was 0.0021 to 0.02 µM.
The same measure, in the same setting: as for `O=C(O)CCCCc1cc2cc(C(=O)N3CC(c4cccc(F)c4)C3)ccc2nc1-c1ccc(F)cc1` [Compound 5AG, 5-(2-(4-fluorophenyl)-6-(3-(3-fluorophenyl)azetidine-1-carbonyl)quinolin-3-yl)pentanoic acid], the figure is 0.0201 to 0.2 µM; as for `O=C(O)CCCCc1cc2cc(C(=O)N[C@@H]3COc4ccccc43)ccc2nc1-c1ccc(Cl)cc1` [Compound 5BB, (S)-5-(2-(4-chlorophenyl)-6-((2,3-dihydrobenzofuran-3-yl)carbamoyl)quinolin-3-yl)pentanoic acid], 0.0021 to 0.02 µM.
